Data from PubChem BioAssay AID2060620 (Molecular Pharmacology Branch, DTP, NCI, 2025).
“And” between values parts separate entries of the source, which are not always exact repeats. Equal values may be shown once. Each block holds one molecule with its values, some of them ahead of it.

System: 328373-195-R-J1-PDC complex spheroids, viability % test/control
Test: Anticancer human tumor 328373-195-R-J1-PDC patient-derived head and neck squamous carcinoma cell line growth inhibition [CLK]
Details: for viability, T/C: stronger effect = lower value
Summary of the method: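 Patient-derived tumor cells grown as complex spheroids with HUVEC endothelial cells and mesenchymal stem cells, treated with drug combinations. Concentrations descend in half-log steps from near clinical Cmax, or from 10 microM if Cmax unknown.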

[1] = curve of first compound, second compound 0.0316 µM
[2] = curve of first compound, second compound 0.1 µM
[3] = curve of first compound, second compound 0.316 µM
[4] = curve of first compound, second compound 1 µM
[5] = curve of first compound, second compound 3.16 µM
[6] = curve of first compound, second compound 10 µM
[7] = second compound 0.0316 µM, first compound 0.0316 µM
[8] = second compound 0.0316 µM, first compound 0.1 µM
[9] = second compound 0.0316 µM, first compound 0.316 µM
[10] = second compound 0.0316 µM, first compound 1 µM
[11] = second compound 0.0316 µM, first compound 3.16 µM
[12] = second compound 0.0316 µM, first compound 10 µM
[13] = second compound 0.1 µM, first compound 0.0316 µM
[14] = second compound 0.1 µM, first compound 0.1 µM
[15] = second compound 0.1 µM, first compound 0.316 µM
[16] = second compound 0.1 µM, first compound 1 µM
[17] = second compound 0.1 µM, first compound 3.16 µM
[18] = second compound 0.1 µM, first compound 10 µM
[19] = second compound 0.316 µM, first compound 0.0316 µM
[20] = second compound 0.316 µM, first compound 0.1 µM
[21] = second compound 0.316 µM, first compound 0.316 µM
[22] = second compound 0.316 µM, first compound 1 µM
[23] = second compound 0.316 µM, first compound 3.16 µM
[24] = second compound 0.316 µM, first compound 10 µM
[25] = second compound 1 µM, first compound 0.0316 µM
[26] = second compound 1 µM, first compound 0.1 µM
[27] = second compound 1 µM, first compound 0.316 µM
[28] = second compound 1 µM, first compound 1 µM
[29] = second compound 1 µM, first compound 3.16 µM
[30] = second compound 1 µM, first compound 10 µM
[31] = second compound 3.16 µM, first compound 0.0316 µM
[32] = second compound 3.16 µM, first compound 0.1 µM
[33] = second compound 3.16 µM, first compound 0.316 µM
[34] = second compound 3.16 µM, first compound 1 µM
[35] = second compound 3.16 µM, first compound 3.16 µM
[36] = second compound 3.16 µM, first compound 10 µM
[37] = second compound 10 µM, first compound 0.0316 µM
[38] = second compound 10 µM, first compound 0.1 µM
[39] = second compound 10 µM, first compound 0.316 µM
[40] = second compound 10 µM, first compound 1 µM
[41] = second compound 10 µM, first compound 3.16 µM
[42] = second compound 10 µM, first compound 10 µM
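Also: spheroids exposed to the agents for 7 days.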

IC50 [1]: > 10 µM
IC50 [2]: < 0.0316 µM
IC50 [3]: < 0.0316 µM
IC50 [4]: < 0.0316 µM
IC50 [5]: < 0.0316 µM
IC50 [6]: < 0.0316 µM
SMILES: O=C(c1cc(Cc2n[nH]c(=O)c3ccccc23)ccc1F)N1CCN(C(=O)C2CC2)CC1 + CNC(=O)c1ccc(Nc2nc(OC3CCCC3)c3c(-c4ccc5nc(C)oc5c4)c[nH]c3n2)c(OC)c1
viability, T/C [7]: 69.1%
viability, T/C [8]: 62.5%
viability, T/C [9]: 62.2%
viability, T/C [10]: 59.1%
viability, T/C [11]: 70.7%
viability, T/C [12]: 52.3%
viability, T/C [13]: 13.8%
viability, T/C [14]: 13.1%
viability, T/C [15]: 9.71%
viability, T/C [16]: 12.3%
viability, T/C [17]: 13.5%
viability, T/C [18]: 11.3%
viability, T/C [19]: 10.8%
viability, T/C [20]: 11.1%
viability, T/C [21]: 11.7%
viability, T/C [22]: 9.06%
viability, T/C [23]: 11.2%
viability, T/C [24]: 10.3%
viability, T/C [25]: 10.3%
viability, T/C [26]: 10%
viability, T/C [27]: 9.23%
viability, T/C [28]: 12%
viability, T/C [29]: 12.6%
viability, T/C [30]: 9.55%
viability, T/C [31]: 11.4%
viability, T/C [32]: 11.2%
viability, T/C [33]: 10%
viability, T/C [34]: 11.5%
viability, T/C [35]: 14.2%
viability, T/C [36]: 9.92%
viability, T/C [37]: 11.5%
viability, T/C [38]: 13.2%
viability, T/C [39]: 13.2%
viability, T/C [40]: 9.97%
viability, T/C [41]: 15.8%
viability, T/C [42]: 12.4%

IC50 [1]: < 0.0316 µM
IC50 [2]: < 0.0316 µM
IC50 [3]: < 0.0316 µM
IC50 [4]: < 0.0316 µM
IC50 [5]: < 0.0316 µM
IC50 [6]: < 0.0316 µM
SMILES: O=c1[nH]cc(F)c(=O)[nH]1 + CNC(=O)c1ccc(Nc2nc(OC3CCCC3)c3c(-c4ccc5nc(C)oc5c4)c[nH]c3n2)c(OC)c1
viability, T/C [7]: 37%
viability, T/C [8]: 18.3%
viability, T/C [9]: 8.48%
viability, T/C [10]: 5.66%
viability, T/C [11]: 6.31%
viability, T/C [12]: 11.2%
viability, T/C [13]: 8.64%
viability, T/C [14]: 5.34%
viability, T/C [15]: 5%
viability, T/C [16]: 3.23%
viability, T/C [17]: 2.62%
viability, T/C [18]: 7.23%
viability, T/C [19]: 7.44%
viability, T/C [20]: 6.09%
viability, T/C [21]: 4.45%
viability, T/C [22]: 4.15%
viability, T/C [23]: 4.13%
viability, T/C [24]: 6.8%
viability, T/C [25]: 8.18%
viability, T/C [26]: 7.54%
viability, T/C [27]: 3.88%
viability, T/C [28]: 2.98%
viability, T/C [29]: 2.83%
viability, T/C [30]: 4.21%
viability, T/C [31]: 11%
viability, T/C [32]: 7.15%
viability, T/C [33]: 3.65%
viability, T/C [34]: 2.93%
viability, T/C [35]: 3.84%
viability, T/C [36]: 4.43%
viability, T/C [37]: 12.2%
viability, T/C [38]: 8.27%
viability, T/C [39]: 4.41%
viability, T/C [40]: 3.11%
viability, T/C [41]: 3.46%
viability, T/C [42]: 1.56%

IC50 (curve of compound): 4.34 µM and 6.46 µM
SMILES: CC(Nc1ccc2c(c1)OCCn1cc(N3C(=O)OCC3C(F)F)nc1-2)C(N)=O (configuration not stated)
viability, T/C (compound 0.0316 µM): 86% and 91.1%
viability, T/C (compound 0.1 µM): 76.5% and 86.9%
viability, T/C (compound 0.316 µM): 77.7% and 75.1%
viability, T/C (compound 1 µM): 73.9% and 78.2%
viability, T/C (compound 3.16 µM): 53.4% and 56.5%
viability, T/C (compound 10 µM): 40% and 44.6%

IC50 [1]: < 0.0316 µM
IC50 [2]: < 0.0316 µM
IC50 [3]: < 0.0316 µM
IC50 [4]: < 0.0316 µM
IC50 [5]: < 0.0316 µM
IC50 [6]: < 0.0316 µM
SMILES: Nc1ccn(C2OC(CO)C(O)C2(F)F)c(=O)n1 (configuration not stated) + CNC(=O)c1ccc(Nc2nc(OC3CCCC3)c3c(-c4ccc5nc(C)oc5c4)c[nH]c3n2)c(OC)c1
viability, T/C [7]: 2.44%
viability, T/C [8]: 1.85%
viability, T/C [9]: 3.64%
viability, T/C [10]: 2.74%
viability, T/C [11]: 2.63%
viability, T/C [12]: 1.95%
viability, T/C [13]: 3.4%
viability, T/C [14]: 1.85%
viability, T/C [15]: 2.02%
viability, T/C [16]: 2.08%
viability, T/C [17]: 2.83%
viability, T/C [18]: 4.18%
viability, T/C [19]: 3.23%
viability, T/C [20]: 2.68%
viability, T/C [21]: 4.06%
viability, T/C [22]: 2.46%
viability, T/C [23]: 2.95%
viability, T/C [24]: 1.84%
viability, T/C [25]: 4.36%
viability, T/C [26]: 1.86%
viability, T/C [27]: 1.79%
viability, T/C [28]: 2.35%
viability, T/C [29]: 3.18%
viability, T/C [30]: 3.19%
viability, T/C [31]: 5.21%
viability, T/C [32]: 3.42%
viability, T/C [33]: 4.01%
viability, T/C [34]: 2.03%
viability, T/C [35]: 2.01%
viability, T/C [36]: 1.88%
viability, T/C [37]: 6.95%
viability, T/C [38]: 3.09%
viability, T/C [39]: 3.18%
viability, T/C [40]: 2.49%
viability, T/C [41]: 2.14%
viability, T/C [42]: 1.82%

SMILES: Nc1ccccc1NC(=O)c1ccc(CNC(=O)OCc2cccnc2)cc1 + CN1CCN(c2cc(C(=O)Nc3cc4cc(-c5cnn(C)c5)ccc4cn3)ccn2)CC1
IC50 [1]: 0.706 µM
IC50 [2]: 0.641 µM
IC50 [3]: < 0.0316 µM
IC50 [4]: < 0.0316 µM
IC50 [5]: < 0.0316 µM
IC50 [6]: < 0.0316 µM
viability, T/C [7]: 90.1%
viability, T/C [8]: 79.9%
viability, T/C [9]: 63.5%
viability, T/C [10]: 38.3%
viability, T/C [11]: 34.1%
viability, T/C [12]: 11.1%
viability, T/C [13]: 74.5%
viability, T/C [14]: 80%
viability, T/C [15]: 55.4%
viability, T/C [16]: 40.8%
viability, T/C [17]: 30%
viability, T/C [18]: 7.09%
viability, T/C [19]: 26.5%
viability, T/C [20]: 32.9%
viability, T/C [21]: 22.5%
viability, T/C [22]: 16.6%
viability, T/C [23]: 8.58%
viability, T/C [24]: 1.38%
viability, T/C [25]: 0.23%
viability, T/C [26]: 1.09%
viability, T/C [27]: 0.16%
viability, T/C [28]: 0.08%
viability, T/C [29]: 1.1%
viability, T/C [30]: 2.52%
viability, T/C [31]: 0.07%
viability, T/C [32]: 0.75%
viability, T/C [33]: 1.64%
viability, T/C [34]: 0.06%
viability, T/C [35]: 0.07%
viability, T/C [36]: 0.09%
viability, T/C [37]: 0.04%
viability, T/C [38]: 1.05%
viability, T/C [39]: 0.15%
viability, T/C [40]: 0.1%
viability, T/C [41]: 2.24%
viability, T/C [42]: 0.16%

SMILES: CC(CO)NC(=O)c1cc(-c2ccc(Cl)cc2)nn(-c2cnn(C)c2)c1=O (configuration not stated) + CN1CCN(c2cc(C(=O)Nc3cc4cc(-c5cnn(C)c5)ccc4cn3)ccn2)CC1
IC50 [1]: > 10 µM
IC50 [2]: > 10 µM
IC50 [3]: < 0.0316 µM
IC50 [4]: < 0.0316 µM
IC50 [5]: < 0.0316 µM
IC50 [6]: < 0.0316 µM
viability, T/C [7]: 108%
viability, T/C [8]: 99.5%
viability, T/C [9]: 114%
viability, T/C [10]: 106%
viability, T/C [11]: 105%
viability, T/C [12]: 97.6%
viability, T/C [13]: 86.1%
viability, T/C [14]: 92.1%
viability, T/C [15]: 94.7%
viability, T/C [16]: 98%
viability, T/C [17]: 92.6%
viability, T/C [18]: 82.6%
viability, T/C [19]: 32.2%
viability, T/C [20]: 39%
viability, T/C [21]: 35.2%
viability, T/C [22]: 39.5%
viability, T/C [23]: 38%
viability, T/C [24]: 33.9%
viability, T/C [25]: 0.23%
viability, T/C [26]: 0.27%
viability, T/C [27]: 1.91%
viability, T/C [28]: 1.81%
viability, T/C [29]: 1.3%
viability, T/C [30]: 2.16%
viability, T/C [31]: 2.73%
viability, T/C [32]: 1.98%
viability, T/C [33]: 1.71%
viability, T/C [34]: 0.57%
viability, T/C [35]: 3.9%
viability, T/C [36]: 2.11%
viability, T/C [37]: 0.74%
viability, T/C [38]: 0.62%
viability, T/C [39]: 0.43%
viability, T/C [40]: 1%
viability, T/C [41]: 0.24%
viability, T/C [42]: 3.1%
